Read-outs that look alike come from different tables or passages of the source.
Legend:
[1] = tested on: Magnaporthe grisea (Pyricularia oryzae—PYRIOR); test: microbe, parasite or virus in culture; format: cell-based; conditions: Pyricularia oryzae, read-out: PYRIOR in vitro Growth Inhibition
[2] = tested on: Rhizoctonia solani (RHIZSO); test: microbe, parasite or virus in culture; format: cell-based; conditions: Rhizoctonia solani, read-out: RHIZSO in vitro Growth Inhibition
[3] = tested on: Mycosphaerella graminicola (Septoria tritici—SEPTTR); test: Inhibition of in vitro fungal growth, SEPTTR; format: cell-based; set-up: inhibition of growth: dose or concentration left out as unconfirmed; conditions: Zymoseptoria tritici; in vitro fungal growth
[4] = tested on: Stagonospora nodorum (Leptosphaeria nodorum—LEPTNO); test: Inhibition of in vitro fungal growth, LEPTNO; format: cell-based; set-up: inhibition of growth: dose or concentration left out as unconfirmed; conditions: Leptosphaeria; in vitro fungal growth
Ustilago maydis (USTIMA) = test: microbe, parasite or virus in culture; format: cell-based; conditions: Mycosarcoma maydis, read-out: USTIMA in vitro Growth Inhibition
[5] = tested on: Phytophthora infestans (PHYTIN); test: microbe, parasite or virus in culture; format: cell-based; conditions: Phytophthora infestans, read-out: PHYTIN in vitro Growth Inhibition
[6] = tested on: Phytophthora infestans—PHYTIN; test: whole plant or invertebrate; format: in vivo; conditions: Phytophthora, in Solanum lycopersicum, 24 h, read-out: PHYTIN in vivo 1 Day Protectant
[7] = tested on: Puccinia recondita—PUCCRT; test: Brown Rust of Wheat, in vivo whole plant, 24 Hour Protectant; conditions: Puccinia, inoculated after 24 hours, read-out: PUCCRT in vivo 1 Day Protectant
Septoria tritici—SEPTTR = test: Leaf Blotch of Wheat, in vivo whole plant, 24 Hour Protectant; conditions: Zymoseptoria tritici, inoculated after 24 hours, read-out: SEPTTR in vivo 1 Day Protectant
[8] = tested on: Leptosphaeria nodorum—LEPTNO; test: Glume Blotch of Wheat, in vivo whole plant, 24 Hour Protectant; conditions: Leptosphaeria, 24 h, inoculated after 24 hours, read-out: LEPTNO in vivo 1 Day Protectant
Erysiphe graminis—ERYSGT = test: Powdery Mildew of Wheat, in vivo whole plant, 24 Hour Protectant; conditions: Erysiphe, in Triticum aestivum, 24 h, read-out: ERYSGT in vivo 1 Day Protectant
[9] = wheat (cultivar Yuma), sprayed at 100 ppm, control of fungal infection vs untreated plants
[10] = wheat plants sprayed at 100 ppm, control vs untreated plants

SMILES	inhibition of growth at 25 µg/mL [1] [%]	inhibition of growth at 25 µg/mL [2] [%]	inhibition of growth [3] [%]	inhibition of growth [4] [%]	inhibition of growth at 25 µg/mL (Ustilago maydis (USTIMA)) [%]	inhibition of growth at 25 µg/mL [5] [%]	pest or weed control at 100 ppm [6] [%]	pest or weed control at 100 ppm [7, 9] [%]	pest or weed control at 100 ppm (Septoria tritici—SEPTTR; [9]) [%]	pest or weed control at 100 ppm [8, 9] [%]	melting point	pest or weed control at 100 ppm (Erysiphe graminis—ERYSGT) [%]	pest or weed control at 100 ppm [7, 10] [%]	pest or weed control at 100 ppm (Septoria tritici—SEPTTR; [10]) [%]	pest or weed control at 100 ppm [8, 10] [%]
Cc1ccnc(C(=O)NC2C(=O)OC(=O)[C@H](Cc3ccccc3)[C@@H](OC(=O)C(C)C)[C@H](C)OC2=O)c1O (stereo partly drawn) [Compound 237]	< 80	< 80	< 80	< 80	< 80	< 80	< 25	75 to 100	25 to 74	25 to 74	122 to 134 °C	< 25	–	–	–
CC1(C)CC(NC(=O)c2ccnnc2O)CC(C)(C)C1 [Compound 539]	–	–	–	–	–	–	< 25	–	–	–	263 to 265 °C	< 25	25 to 74	25 to 74	25 to 74
COc1ccnc(C(=O)Nc2cccc(CC3CC(C)(C)OC(C)(C)C3)c2)c1O [Compound 460]	–	–	–	–	–	–	< 25	–	–	–	149 to 153 °C	25 to 74	25 to 74	25 to 74	25 to 74
CC(C)C(=O)O[C@H]1[C@H](C)OC(=O)[C@@H](NC(=O)c2cccnc2O)COC(=O)[C@@H]1Cc1ccccc1 [Compound 523]	–	–	–	–	–	–	25 to 74	–	–	–	188 to 190 °C (dec.)	25 to 74	25 to 74	25 to 74	75 to 100
